Experimental findings from PubChem BioAssay (NCI) are described below.

Structures are written as SMILES.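 Step 1: Grow cells in 96-well plates. Step 2: Expose to compound for 48 hours at 5 concentrations. Step 3: Interpolate endpoints linearly; if unreached, use highest concentration. Here, GI50 denotes the concentration required for 50% inhibition of growth. TGI: total growth inhibition.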

Among the test systems are UACC-62 melanoma; DU-145 prostate; SNB-19 CNS; HOP-62 NSCLC; OVCAR-3 ovarian; MOLT-4 leukemia; NCI/ADR-RES ovarian; UACC-257 melanoma; A498 renal; T-47D breast.
Holding throughout (assay): growth of human tumour cells (NCI), 48 h

On to `CC[C@]1(O)CC2CN(CCc3c([nH]c4ccccc34)[C@@](C(=O)OC)(c3cc4c(cc3OC)N(C=O)[C@H]3[C@@](O)(C(=O)OC)[C@H](OC(C)=O)[C@]5(CC)C=CCN6CC[C@]43[C@@H]65)C2)C1` (stereo partly drawn), for which the GI50 was less than 0.005 µM with UACC-62 melanoma; less than 0.005 µM in the experiment with DU-145 prostate; less than 0.005 µM in the experiment on SNB-19 CNS; 0.0054 µM with HOP-62 NSCLC; less than 0.005 µM in the experiment with OVCAR-3 ovarian; less than 0.005 µM in the experiment with MOLT-4 leukemia. Also, the GI50 with NCI/ADR-RES ovarian is 0.698 µM; in the experiment with UACC-257 melanoma, less than 0.005 µM; in the experiment with A498 renal, 0.0123 µM. For the same compound, the TGI in the experiment with UACC-62 melanoma is more than 50 µM; with SNB-19 CNS it was more than 50 µM; in the experiment with HOP-62 NSCLC, more than 44.2 µM; in the experiment on NCI/ADR-RES ovarian, more than 13.3 µM; in the experiment with UACC-257 melanoma, more than 38.4 µM.

As for `Cc1ccc(/C=C/c2c(C(=O)/C=C/c3ccc(Cl)cc3)c(C)nc3ccccc23)cc1`, the GI50 was 1.75 µM in the experiment on UACC-62 melanoma; 1.74 µM in the experiment on DU-145 prostate; 1.75 µM with SNB-19 CNS; 2.15 µM in the experiment with HOP-62 NSCLC; 1.84 µM in the experiment on OVCAR-3 ovarian; 2.18 µM in the experiment on MOLT-4 leukemia. The GI50 in the experiment with NCI/ADR-RES ovarian was 1.99 µM; in the experiment on UACC-257 melanoma, 2.15 µM; in the experiment on A498 renal it was 1.77 µM. In addition, the TGI in the experiment on UACC-62 melanoma is 3.72 µM; with DU-145 prostate it was 3.27 µM; with SNB-19 CNS, 3.28 µM; in the experiment on HOP-62 NSCLC, 4.68 µM; with OVCAR-3 ovarian, 3.51 µM; in the experiment on MOLT-4 leukemia it was more than 100 µM. Besides, the TGI in the experiment with NCI/ADR-RES ovarian was determined as 4.45 µM; with UACC-257 melanoma it was 4.8 µM; in the experiment on A498 renal, 3.28 µM.

For `O=S(=O)(c1ccccc1)N1CN2CN(C1)CN(S(=O)(=O)c1ccccc1)C2`, the TGI in the experiment with UACC-62 melanoma, in the experiment on DU-145 prostate, with SNB-19 CNS, in the experiment with HOP-62 NSCLC, in the experiment on OVCAR-3 ovarian and in the experiment with NCI/ADR-RES ovarian was more than 100 µM throughout. The TGI with UACC-257 melanoma and with A498 renal was more than 100 µM throughout.

Take `CC(=O)[CH-]C(=O)c1ccccc1.CC(=O)[CH-]C(=O)c1ccccc1.CC(C)CCC[C@H](C)C1CCC2[C@@H]3CC=C4C[C@@H]([O-])CC[C@]4(C)C3CC[C@@]21C.CC(C)CCC[C@H](C)C1CCC2[C@@H]3CC=C4C[C@@H]([O-])CC[C@]4(C)C3CC[C@@]21C.Cl.[Ti+4]` (stereo partly drawn): the GI50 in the experiment on UACC-62 melanoma, with SNB-19 CNS, in the experiment on HOP-62 NSCLC, with OVCAR-3 ovarian, with MOLT-4 leukemia and in the experiment on UACC-257 melanoma was more than 25 µM each time. Moreover, the GI50 in the experiment with A498 renal is more than 25 µM. Also, the TGI in the experiment on UACC-62 melanoma, in the experiment with SNB-19 CNS, in the experiment on HOP-62 NSCLC, in the experiment on OVCAR-3 ovarian, in the experiment with MOLT-4 leukemia and in the experiment with UACC-257 melanoma was more than 25 µM throughout. This compound also registered a TGI in the experiment on A498 renal of more than 25 µM.

Turning to `Cc1ccc(-c2nc(N3CCNCC3)c3oc(-c4ccccc4)nc3n2)cc1`, the GI50 with UACC-62 melanoma was 1.74 µM; in the experiment with DU-145 prostate it was 1.74 µM; in the experiment on SNB-19 CNS it was 1.85 µM; with T-47D breast it was 1.81 µM; in the experiment with HOP-62 NSCLC, 1.96 µM; in the experiment on OVCAR-3 ovarian, 1.96 µM. For the same compound, the GI50 in the experiment with MOLT-4 leukemia is 1.91 µM; in the experiment with UACC-257 melanoma, more than 100 µM; in the experiment on A498 renal, 14.5 µM. The TGI in the experiment with UACC-62 melanoma came out at 3.19 µM; in the experiment with DU-145 prostate, 3.19 µM; with SNB-19 CNS, 3.29 µM; with T-47D breast, 3.83 µM; in the experiment with HOP-62 NSCLC it was 4.48 µM; in the experiment with OVCAR-3 ovarian, 3.48 µM. In addition, the TGI with MOLT-4 leukemia is 3.67 µM; in the experiment on UACC-257 melanoma, more than 100 µM; in the experiment with A498 renal it was 28.8 µM.

For the compound `COc1cc(/C=C/C(=O)/C=C/c2cc3ccc(Cl)cc3n(Cc3ccccc3)c2=O)ccc1O`, the GI50 in the experiment with UACC-62 melanoma was 1.29 µM; in the experiment with DU-145 prostate, 1.87 µM; in the experiment with SNB-19 CNS it was 1.73 µM; in the experiment with T-47D breast it was 2.02 µM; with HOP-62 NSCLC it was 2.75 µM; in the experiment on OVCAR-3 ovarian, 0.71 µM. Also, the GI50 is 1.89 µM with MOLT-4 leukemia, 2.86 µM in the experiment on NCI/ADR-RES ovarian and 2.06 µM with UACC-257 melanoma. Also, the TGI in the experiment with UACC-62 melanoma is 3.71 µM; with DU-145 prostate, 5.47 µM; with SNB-19 CNS, 3.88 µM; with T-47D breast it was 11.5 µM; with HOP-62 NSCLC, 7.08 µM; in the experiment on OVCAR-3 ovarian, 2.43 µM. Moreover, the results for the TGI in the experiment with MOLT-4 leukemia, in the experiment on NCI/ADR-RES ovarian and with UACC-257 melanoma were more than 100 µM, more than 100 µM and 4.83 µM, respectively.

With `c1ccc(-c2n(Cc3ccc4ccccc4c3)cc[n+]2Cc2ccc3ccccc3c2)cc1`, the GI50 in the experiment on UACC-62 melanoma is 0.447 µM; with DU-145 prostate, 1.38 µM; with NCI/ADR-RES ovarian, 13.9 µM. Besides, the TGI in the experiment on UACC-62 melanoma stood at 1.73 µM; in the experiment with DU-145 prostate, 2.73 µM; in the experiment on NCI/ADR-RES ovarian it was 35.4 µM.

Take `COC(=O)C1(C)CC2C(C)(CCC3(C)C4=CC=C5C(=CC(=O)C(O)=C5C)C4(C)CCC23C)CC1O` (stereo not drawn): the TGI was 2.32 µM with UACC-62 melanoma; 2.71 µM in the experiment with DU-145 prostate; 2.81 µM in the experiment with SNB-19 CNS; 3.51 µM with HOP-62 NSCLC; 2.24 µM in the experiment on OVCAR-3 ovarian; 0.931 µM in the experiment on MOLT-4 leukemia. Further, the TGI in the experiment on NCI/ADR-RES ovarian turned out to be 2.93 µM; in the experiment on UACC-257 melanoma it was 4.28 µM; with A498 renal, 3.51 µM.

As to `C/C(=N\n1c(O)c(C#N)cc(C#N)c1=O)c1ccncc1`, the GI50 in the experiment with UACC-62 melanoma, in the experiment with DU-145 prostate, with SNB-19 CNS, in the experiment on T-47D breast, in the experiment on HOP-62 NSCLC and with OVCAR-3 ovarian was more than 100 µM throughout. For the same compound, the GI50 in the experiment with MOLT-4 leukemia, in the experiment with NCI/ADR-RES ovarian and in the experiment with UACC-257 melanoma was more than 100 µM throughout. Besides, the TGI in the experiment on UACC-62 melanoma, in the experiment with DU-145 prostate, with SNB-19 CNS, with T-47D breast, in the experiment with HOP-62 NSCLC and in the experiment on OVCAR-3 ovarian was more than 100 µM throughout. Further, the TGI in the experiment with MOLT-4 leukemia, with NCI/ADR-RES ovarian and with UACC-257 melanoma was more than 100 µM in each case.

Take `COC(=O)C1C(=O)O[C@@H](c2ccc(OC)c(OC)c2OC)C1C(=O)OC` (mixture of isomers): the TGI with UACC-62 melanoma, with SNB-19 CNS, with HOP-62 NSCLC, in the experiment with OVCAR-3 ovarian, with MOLT-4 leukemia and in the experiment on UACC-257 melanoma was more than 100 µM throughout. In addition, the TGI in the experiment with A498 renal is more than 100 µM.

With `OCc1ccc(N2CCc3cc(F)ccc3C2)cc1Cl`, the GI50 was 0.0256 µM with UACC-62 melanoma; 6.67 µM with DU-145 prostate; 13.2 µM in the experiment on SNB-19 CNS; 0.302 µM in the experiment with HOP-62 NSCLC; 0.0518 µM with OVCAR-3 ovarian; 15 µM with MOLT-4 leukemia. The GI50 with NCI/ADR-RES ovarian is 11.3 µM; in the experiment with UACC-257 melanoma it was 0.0197 µM; with A498 renal, 0.0206 µM. Moreover, the TGI in the experiment with UACC-62 melanoma was 0.198 µM; in the experiment on DU-145 prostate, 20.6 µM; in the experiment with SNB-19 CNS, 26.3 µM; in the experiment with HOP-62 NSCLC it was 17.9 µM; in the experiment with OVCAR-3 ovarian, 0.288 µM; in the experiment with MOLT-4 leukemia it was 47.4 µM. Moreover, the TGI in the experiment on NCI/ADR-RES ovarian turned out to be 33.7 µM; in the experiment with UACC-257 melanoma it was 0.0723 µM; in the experiment with A498 renal, 0.0756 µM.

On to `COC1[C@H](NC(=O)OC(C)(C)C)C(=O)N1Cc1ccccc1` (stereo partly drawn), for which the TGI in the experiment with UACC-62 melanoma, with SNB-19 CNS, with HOP-62 NSCLC, in the experiment with OVCAR-3 ovarian, in the experiment on MOLT-4 leukemia and in the experiment on UACC-257 melanoma was more than 100 µM in each case. This compound also showed a TGI in the experiment with A498 renal of more than 100 µM.

Consider `CCCCCCCCCCCCCCCCc1c(C(=O)OC)nc(NN)[nH]c1=O`, for which the TGI in the experiment on UACC-62 melanoma, in the experiment with SNB-19 CNS, in the experiment with HOP-62 NSCLC, in the experiment with OVCAR-3 ovarian, with MOLT-4 leukemia and in the experiment on UACC-257 melanoma was more than 50 µM each time. Further, in the experiment on A498 renal, the TGI is more than 50 µM.

In the case of `CC1CCC(=O)C(C(O)CC2CC(=O)N(c3ccccc3)C(=O)C2)C1` (stereo not drawn), the TGI with UACC-62 melanoma, in the experiment with SNB-19 CNS, in the experiment on HOP-62 NSCLC, in the experiment on OVCAR-3 ovarian, in the experiment on MOLT-4 leukemia and in the experiment with UACC-257 melanoma was more than 100 µM throughout. This compound showed a TGI in the experiment on A498 renal of more than 100 µM.

`Cc1nc(N)c(-c2ccccc2)s1`: the TGI is more than 100 µM with UACC-62 melanoma; more than 100 µM in the experiment on SNB-19 CNS; more than 100 µM in the experiment with HOP-62 NSCLC; more than 100 µM in the experiment with OVCAR-3 ovarian; more than 100 µM in the experiment with MOLT-4 leukemia; more than 96.1 µM in the experiment on UACC-257 melanoma. Moreover, the TGI in the experiment with A498 renal is more than 100 µM.

With `COc1ccc(-c2ccccc2)c2[nH]c3c(c12)CCNC3=O`, the TGI in the experiment with UACC-62 melanoma, in the experiment on SNB-19 CNS, in the experiment on HOP-62 NSCLC, with OVCAR-3 ovarian, in the experiment with MOLT-4 leukemia and with UACC-257 melanoma was more than 100 µM in each case. Further, the TGI in the experiment on A498 renal was more than 100 µM.
